Measured values taken from US9546157B2, “Asymmetric piperidinyl-substituted ureas as medicines” (Helsinn Healthcare SA, priority 2014, dated 2017).

Legend:
[1] = Metabolic Stability (M = Mouse); format: in vitro ADME
[2] = Metabolic Stability (H = Human); format: in vitro ADME
[3] = target: T1, GHSR1a (Homo sapiens, UniProt Q92847); assay: Calcium FLIPR assay, GHSR-1a agonism; format: cell-based; design: Emax: unit not given here; details: HEK293/GHSR1a cells
T1 construct: expressed in transfected cells; host or cells: HEK293
Method in brief: (§1)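 HEK293 cells expressing GHSR1a, seeded 24 hr earlier and loaded with calcium dye for 30-60 min at room temperature or 37° C, were read by FLIPR fluorescence. Agonism: compound added at t=20 sec, calcium followed 2 minutes. Antagonism: compound plus ghrelin (10 nM) at t=20 sec; potency from reduction of ghrelin response.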

[4] = target: T1, GHSR1a; assay: Calcium FLIPR assay, GHSR-1a antagonism (reduction of ghrelin response); format: cell-based; details: HEK293/GHSR1a cells, ghrelin 10 nM
Method in brief: as §1

T1 sequence (Q92847 whole entry): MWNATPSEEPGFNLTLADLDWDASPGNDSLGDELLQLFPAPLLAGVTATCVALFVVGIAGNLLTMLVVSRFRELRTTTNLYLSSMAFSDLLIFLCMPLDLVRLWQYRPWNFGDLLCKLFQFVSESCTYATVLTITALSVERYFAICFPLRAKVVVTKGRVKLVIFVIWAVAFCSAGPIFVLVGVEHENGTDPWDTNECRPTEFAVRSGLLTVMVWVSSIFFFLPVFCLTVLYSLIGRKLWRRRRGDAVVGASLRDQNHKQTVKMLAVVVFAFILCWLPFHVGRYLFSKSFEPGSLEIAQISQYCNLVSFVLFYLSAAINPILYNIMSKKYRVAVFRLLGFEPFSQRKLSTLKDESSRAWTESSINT

| Compound | Metabolic Stability M [1] | Metabolic Stability H [2] | EC50 [3] [nM] | IC50 [4] [nM] | Emax [3] |
| --- | --- | --- | --- | --- | --- |
| CC(NC(=O)N(Cc1ccc(CO)cc1)C1CCN(C)CC1)c1ccc(-c2cccnc2)c(Cl)c1Cl (centres unmarked) [Compound H0546, 3-(1-(2,3-dichloro-4-(pyridin-3-yl)phenyl)ethyl)-1-(4-(hydroxymethyl)benzyl)-1-(1-methylpiperidin-4-yl)urea] | Medium H Medium M | Medium H Medium M | > 30000 | 8 |  |
| CC(NC(=O)N(C)C1CCN(C)CC1)c1ccc(-n2ccnn2)c(Cl)c1Cl (centres unmarked) [Compound H0565, 3-(1-(2,3-dichloro-4-(1H-1,2,3-triazol-1-yl)phenyl)ethyl)-1-methyl-1-(1-methylpiperidin-4-yl)urea] | High H High M | High H High M | 30 | 28 |  |
| CC(NC(=O)N(C)C1CCN(C)CC1)c1ccc(-c2cscn2)c(Cl)c1Cl (centres unmarked) [Compound H0568, 3-(1-(2,3-dichloro-4-(thiazol-4-yl)phenyl)ethyl)-1-methyl-1-(1-methylpiperidin-4-yl)urea] | High H High M | High H High M | 4 | 9 |  |
| CC(NC(=O)N(C)C1CCN(C)CC1)c1ccc(-c2cocn2)c(Cl)c1Cl (centres unmarked) [Compound H0569, 3-(1-(2,3-dichloro-4-(oxazol-4-yl)phenyl)ethyl)-1-methyl-1-(1-methylpiperidin-4-yl)urea] | Medium H Medium M | Medium H Medium M | > 30000 | 87 |  |
| CC(NC(=O)N(C)C1CCN(C)CC1)c1ccc(-c2ccsc2)c2ccccc12 (centres unmarked) [Compound H0574, 1-methyl-1-(1-methylpiperidin-4-yl)-3-(1-(4-(thiophen-3-yl)naphthalen-1-yl)ethyl)urea] | Medium H Medium M | Medium H Medium M | 81 | 67 | 2489 |
| CC(NC(=O)N(C)C1CCN(C)CC1)c1ccc(-c2cccs2)c2ccccc12 (centres unmarked) [Compound H0575, 1-methyl-1-(1-methylpiperidin-4-yl)-3-(1-(4-(thiophen-2-yl)naphthalen-1-yl)ethyl)urea] | Medium H Medium M | Medium H Medium M | 28 | 32 | 3533 |
| CC(NC(=O)N(C)C1CCN(C)CC1)c1ccc(-c2cccs2)c(Cl)c1F (centres unmarked) [Compound H0582, 3-(1-(34-chloro-2-fluoro-4-(thiophen-2-yl)phenyl)ethyl)-1-methyl-1-(1-methylpiperidin-4-yl)urea] | Medium H Medium M | Medium H Medium M | 20 | 15 | 2069 |
| CC(NC(=O)N(C)C1CCN(C)CC1)c1ccc(-c2cccc(N)c2)c2ccccc12 (centres unmarked) [Compound H0591, 3-(1-(4-(3-aminophenyl)naphthalen-1-yl)ethyl)-1-methyl-1-(1-methylpiperidin-4-yl)urea] | Medium H Medium M | Medium H Medium M | 126 | 11 |  |
| CN1CCC(N(C)C(=O)NC(COCc2cccc(CO)c2)c2ccc(-c3ccsc3)c(Cl)c2Cl)CC1 (centres unmarked) [Compound H0594, 3-(1-(2,3-dichloro-4-(thiophen-3-yl)phenyl)-2-((3-(hydroxymethyl)benzyl)oxy)ethyl)-1-methyl-1-(1-methylpiperidin-4-yl)urea] | Medium | Poor | > 30000 | 54 |  |
| CC(NC(=O)N(C)C1CCN(C)CC1)c1ccc(-c2cncs2)c2ccccc12 (centres unmarked) [Compound H0597, 1-methyl-1-(1-methylpiperidin-4-yl)-3-(1-(4-(thiazol-5-yl)naphthalen-1-yl)ethyl)urea] | Poor H Poor M | Poor H Poor M | > 30000 | 24 |  |
| CC(NC(=O)N(C)C1CCN(C)CC1)c1ccc(-c2c[nH]nn2)c(Cl)c1Cl (centres unmarked) [Compound H0604, 3-(1-(2,3-dichloro-4-(1H-1,2,3-triazol-4-yl)phenyl)ethyl)-1-methyl-1-(1-methylpiperidin-4-yl)urea] | High H High M | High H High M | 25 | 12 |  |
| CC(NC(=O)N(C)C1CCN(C)CC1)c1ccc(-c2cccc(C#N)c2)c(Cl)c1Cl (centres unmarked) [Compound H0610, 3-(1-(2,3-dichloro-3′-cyano-[1,1′-biphenyl]-4-yl)ethyl)-1-methyl-1-(1-methylpiperidin-4-yl)urea] | Medium H Medium M | Medium H Medium M | > 30000 | 101 |  |
| CC(NC(=O)N(C)C1CCN(C)CC1)c1ccc(-c2ccc(C(N)=O)cc2)c(Cl)c1Cl (centres unmarked) [Compound H0615, 2′,3′-dichloro-4′-(1-(3-methyl-3-(1-methylpiperidin-4-yl)ureido)ethyl)-[1,1′-biphenyl]-4-carboxamide] | Medium | High | > 30000 | 107 |  |
| CN1CCC(N(C)C(=O)NC(COCc2cccc(CO)c2)c2ccc(-c3cncnc3)c(Cl)c2Cl)CC1 (centres unmarked) [Compound H0620, 3-(1-(2,3-dichloro-4-(pyrimidin-5-yl)phenyl)-2-((3-(hydroxymethyl)benzyl)oxy)ethyl)-1-methyl-1-(1-methylpiperidin-4-yl)urea] | Poor H Poor M | Poor H Poor M | > 30000 | 32 |  |
| CC(NC(=O)N(C)C1CCN(C)CC1)c1ccc(-c2cnc3[nH]ncc3c2)c(Cl)c1Cl (centres unmarked) [Compound H0623, 3-(1-(2,3-dichloro-4-(1H-pyrazolo[3,4-b]pyridin-5-yl)phenyl)ethyl)-1-methyl-1-(1-methylpiperidin-4-yl)urea] | Poor | Medium | > 30000 | 71 |  |
| CC(NC(=O)N(O)C1CCN(C)CC1)c1ccc(-c2cccs2)c(Cl)c1Cl (centres unmarked) [Compound H0627, 3-(1-(2,3-dichloro-4-(thiophen-2-yl)phenyl)ethyl)-1-hydroxy-1-(1-methylpiperidin-4-yl)urea] | High H High M | High H High M | 1 | 4 | 5289 |
| CC(NC(=O)N(C)C1CCN(C)CC1)c1ccc(CC#N)c(Cl)c1Cl (centres unmarked) [Compound H0630, 3-(1-(2,3-dichloro-4-(cyanomethyl)phenyl)ethyl)-1-methyl-1-(1-methylpiperidin-4-yl)urea] | High H High M | High H High M | 9 | 3 | 4714 |
| CC(NC(=O)N(C)C1CCN(C)CC1)c1ccc(CO)c(Cl)c1Cl (centres unmarked) [Compound H0633, 3-(1-(2,3-dichloro-4-(hydroxymethyl)phenyl)ethyl)-1-methyl-1-(1-methylpiperidin-4-yl)urea] | High H High M | High H High M | 15 | 3 |  |
